# In ChEMBL document CHEMBL5653631, “A Potent and Selective ULK1 Inhibitor Suppresses Autophagy and Sensitizes Cancer Cells to Nutrient Stress” (iScience, 2018):
# Key:
# [1] = target: T1, Tyrosine-protein kinase receptor TYRO3 (Homo sapiens) (UniProt Q06418); test: Inhibition of human recombinant TYRO3 at 40 nM in presence of ATP by radiometric assay relative to control
# T1 sequence (whole entry): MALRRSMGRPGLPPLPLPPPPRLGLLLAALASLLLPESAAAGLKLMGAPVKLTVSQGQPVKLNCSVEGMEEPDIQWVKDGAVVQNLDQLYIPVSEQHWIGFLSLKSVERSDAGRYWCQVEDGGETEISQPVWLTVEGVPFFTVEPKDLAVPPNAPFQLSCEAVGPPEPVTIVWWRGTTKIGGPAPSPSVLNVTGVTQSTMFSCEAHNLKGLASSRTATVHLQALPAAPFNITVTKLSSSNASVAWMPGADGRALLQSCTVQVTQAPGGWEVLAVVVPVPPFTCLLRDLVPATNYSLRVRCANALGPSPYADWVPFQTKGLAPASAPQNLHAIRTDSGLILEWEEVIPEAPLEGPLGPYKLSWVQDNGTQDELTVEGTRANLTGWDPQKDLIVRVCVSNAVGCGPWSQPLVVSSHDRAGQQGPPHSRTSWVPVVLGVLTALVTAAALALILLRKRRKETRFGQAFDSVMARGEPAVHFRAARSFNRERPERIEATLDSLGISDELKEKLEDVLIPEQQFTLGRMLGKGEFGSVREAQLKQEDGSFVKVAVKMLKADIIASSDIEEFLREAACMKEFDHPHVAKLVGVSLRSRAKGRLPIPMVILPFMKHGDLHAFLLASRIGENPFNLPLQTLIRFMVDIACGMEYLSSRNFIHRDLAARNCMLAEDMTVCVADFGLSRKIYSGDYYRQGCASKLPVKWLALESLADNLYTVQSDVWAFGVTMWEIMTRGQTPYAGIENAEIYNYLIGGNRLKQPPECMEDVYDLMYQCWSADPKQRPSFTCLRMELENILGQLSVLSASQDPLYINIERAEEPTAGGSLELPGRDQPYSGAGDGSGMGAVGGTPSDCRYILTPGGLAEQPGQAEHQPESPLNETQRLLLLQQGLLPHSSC
# [2] = target: Interferon-induced, double-stranded RNA-activated protein kinase (Homo sapiens) (UniProt P19525); test: Inhibition of human recombinant PKR at 40 nM in presence of ATP by radiometric assay relative to control
# Interferon-induced, double-stranded RNA-activated protein kinase (Homo sapiens), sequence (P19525 whole entry): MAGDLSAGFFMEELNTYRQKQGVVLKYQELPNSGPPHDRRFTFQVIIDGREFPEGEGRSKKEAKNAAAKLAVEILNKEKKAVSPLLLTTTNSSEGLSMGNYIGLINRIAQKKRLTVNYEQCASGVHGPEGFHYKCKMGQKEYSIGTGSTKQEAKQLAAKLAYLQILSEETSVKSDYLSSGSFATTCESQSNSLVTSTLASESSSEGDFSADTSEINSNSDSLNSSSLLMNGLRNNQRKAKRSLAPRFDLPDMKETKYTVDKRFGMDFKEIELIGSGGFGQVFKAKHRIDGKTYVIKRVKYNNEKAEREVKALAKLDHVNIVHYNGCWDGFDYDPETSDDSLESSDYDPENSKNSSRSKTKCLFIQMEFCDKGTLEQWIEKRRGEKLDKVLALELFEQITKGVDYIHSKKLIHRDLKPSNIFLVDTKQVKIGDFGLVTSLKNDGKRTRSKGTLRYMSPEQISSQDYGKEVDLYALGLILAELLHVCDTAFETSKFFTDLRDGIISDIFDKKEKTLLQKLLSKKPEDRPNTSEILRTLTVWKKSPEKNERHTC
# [3] = target: T2, Mitogen-activated protein kinase kinase kinase kinase 2 (Homo sapiens) (UniProt Q12851); test: Inhibition of human recombinant GCK at 500 nM related to control ULK1
# T2 sequence (whole entry): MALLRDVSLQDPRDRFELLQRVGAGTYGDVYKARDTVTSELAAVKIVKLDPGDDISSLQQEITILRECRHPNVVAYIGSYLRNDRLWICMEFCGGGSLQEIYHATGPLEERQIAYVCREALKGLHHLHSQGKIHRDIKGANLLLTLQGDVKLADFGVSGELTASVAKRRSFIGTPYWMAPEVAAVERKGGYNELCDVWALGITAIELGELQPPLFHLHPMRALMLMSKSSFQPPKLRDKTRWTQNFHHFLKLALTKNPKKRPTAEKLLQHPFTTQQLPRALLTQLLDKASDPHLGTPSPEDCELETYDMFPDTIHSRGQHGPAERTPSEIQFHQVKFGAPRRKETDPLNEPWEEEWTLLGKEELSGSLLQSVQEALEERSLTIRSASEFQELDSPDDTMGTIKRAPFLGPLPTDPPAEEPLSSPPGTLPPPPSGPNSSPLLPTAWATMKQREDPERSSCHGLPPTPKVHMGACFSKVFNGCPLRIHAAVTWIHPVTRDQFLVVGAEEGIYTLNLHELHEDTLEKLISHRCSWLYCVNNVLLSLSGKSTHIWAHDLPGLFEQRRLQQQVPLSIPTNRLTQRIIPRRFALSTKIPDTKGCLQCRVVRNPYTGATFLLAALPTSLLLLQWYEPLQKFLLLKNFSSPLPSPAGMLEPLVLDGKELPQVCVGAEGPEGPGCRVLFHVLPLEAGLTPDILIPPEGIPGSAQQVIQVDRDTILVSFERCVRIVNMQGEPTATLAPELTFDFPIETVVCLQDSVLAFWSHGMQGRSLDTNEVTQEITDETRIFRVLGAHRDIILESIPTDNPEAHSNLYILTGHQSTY
# [4] = target: T3, Inhibitor of nuclear factor kappa-B kinase subunit epsilon (Homo sapiens) (UniProt Q14164); test: Inhibition of human recombinant IKKe at 15 nM in presence of ATP by radiometric assay relative to control
# T3 sequence (whole entry): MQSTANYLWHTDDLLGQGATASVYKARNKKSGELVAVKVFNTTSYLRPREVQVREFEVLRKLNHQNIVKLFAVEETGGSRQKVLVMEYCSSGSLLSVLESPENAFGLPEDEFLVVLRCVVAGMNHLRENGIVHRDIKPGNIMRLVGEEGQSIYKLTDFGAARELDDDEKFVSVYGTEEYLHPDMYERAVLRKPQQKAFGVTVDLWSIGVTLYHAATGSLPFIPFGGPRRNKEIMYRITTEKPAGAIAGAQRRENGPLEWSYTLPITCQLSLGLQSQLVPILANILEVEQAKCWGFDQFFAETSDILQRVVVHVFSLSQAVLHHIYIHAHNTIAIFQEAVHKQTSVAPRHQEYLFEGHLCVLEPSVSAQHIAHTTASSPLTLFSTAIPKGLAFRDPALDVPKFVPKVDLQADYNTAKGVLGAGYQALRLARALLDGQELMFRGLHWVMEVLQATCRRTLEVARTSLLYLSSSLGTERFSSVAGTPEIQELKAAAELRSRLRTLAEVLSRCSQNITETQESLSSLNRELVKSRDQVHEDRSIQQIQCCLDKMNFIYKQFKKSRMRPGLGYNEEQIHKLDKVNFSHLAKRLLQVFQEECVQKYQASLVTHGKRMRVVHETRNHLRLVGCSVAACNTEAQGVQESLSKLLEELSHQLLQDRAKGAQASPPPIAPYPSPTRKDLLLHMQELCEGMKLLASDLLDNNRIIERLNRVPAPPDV
# [5] = target: Glycogen synthase kinase-3 alpha (Homo sapiens) (UniProt P49840); test: Inhibition of human recombinant GSK3A at 15 nM in presence of ATP by radiometric assay relative to control
# Glycogen synthase kinase-3 alpha (Homo sapiens), sequence (P49840 2-483 limits assumed): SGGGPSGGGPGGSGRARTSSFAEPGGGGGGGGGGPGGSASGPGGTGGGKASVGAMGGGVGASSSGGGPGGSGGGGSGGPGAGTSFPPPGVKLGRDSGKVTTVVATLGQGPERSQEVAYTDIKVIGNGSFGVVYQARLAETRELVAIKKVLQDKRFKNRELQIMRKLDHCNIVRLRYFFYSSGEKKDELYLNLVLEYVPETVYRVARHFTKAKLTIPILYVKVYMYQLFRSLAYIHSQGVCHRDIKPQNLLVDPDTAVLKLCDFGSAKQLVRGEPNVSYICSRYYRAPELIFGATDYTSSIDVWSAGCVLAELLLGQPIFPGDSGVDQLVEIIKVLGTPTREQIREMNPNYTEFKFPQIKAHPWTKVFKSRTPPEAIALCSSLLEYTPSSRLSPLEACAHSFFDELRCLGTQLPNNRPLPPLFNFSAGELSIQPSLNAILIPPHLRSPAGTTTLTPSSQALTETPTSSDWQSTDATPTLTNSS
smiles,measurement,setting,value
O=C(N[C@@H](C1CC1)C(F)(F)F)c1cc(-c2cnn3cc(-c4ccc(F)cc4)cnc23)cs1,inhibition,[1],0%
same,inhibition,[2],0%
CNC(=O)c1ccccc1Oc1nc(Nc2cc(OC)c(OC)c(OC)c2)ncc1Br,fold change (FC),[3],0.45
CC(C)[C@H](NC(=O)c1cc(-c2cnn3cc(-c4ccc(OCCN5CCCCC5)cc4)cnc23)cs1)C(F)(F)F,inhibition,[4],75%
same,inhibition,[5],0%
